In US20130274228A1, “CONCOMITANT DRUG FOR IMPROVING COGNITIVE FUNCTION” (Nishizaki Bioinformation Research Institute, priority 2010, published 2013):

Test system: normal rats
Test: Water maze test (acquisition latency)
Assay type: in vivo, rat
Details: oral, every day from 7 days before and during the test, male Wister rats
Method: Male Wister rats (7-weeks-old) were used for a water maze test. A circular plastic water tank (diameter 180 cm, depth 45 cm) was used. The inside of the water tank was completely painted in black, and dark water with India ink was filled up to 25 cm from the bottom (22° C.). A platform (diameter 11 cm) painted in black was placed in water such that it was 1 cm below the water surface. The water tank was placed in a test room, and several marks seen by the rat from the water tank were put thereon. During the test, the position of the marks was not changed. A platform was placed a predetermined position from the equal distance from the center and the end of the water tank, namely, center of one quadrant. At one of the randomly selected 5 points, the rat was released facing the wall of the water tank, and the time necessary for evacuating on the platform (acquisition latency) was measured. When smoothly evacuated, the rat was left on the platform for 10 seconds. From 7 days before the water maze test and during the test, DLPC (5 mg/kg) alone, DLPC (10 mg/kg) alone, POPC (5 mg/kg) alone, POPC (10 mg/kg) alone, DLPC (5 mg/kg) and POPC (5 mg/kg), or PEG alone, each dissolved in polyethylene glycol (PEG), was orally administered every day. The water maze test m was performed twice a day, and the second test was started at 2 min after the first test. The test was continuously performed for 8 days, and the mean (±SEM) of acquisition latency of continuous 2 days until the rat reached the platform was calculated.
PEG, DLPC (5 mg/kg), DLPC (10 mg/kg), POPC (5 mg/kg), POPC (10 mg/kg) or DLPC (5 mg/kg) and POPC (5 mg/kg) was orally administered to rats every day during the water maze test from 7 days before the test.

| Compound | acquisition latency of the rat (single administration 5 mg/kg) | acquisition latency of the rat (single administration 10 mg/kg) |
| --- | --- | --- |
| CCCCC/C=C\C/C=C\CCCCCCCC(=O)OC[C@H](COP(=O)([O-])OCC[N+](C)(C)C)OC(=O)CCCCCCC/C=C\C/C=C\CCCCC [DLPC, 1,2-dilinoleoyl-sn-glycero-3-phosphocholine] | did not show a remarkable effect | did not show a remarkable effect |
| CCCCCCCC/C=C\CCCCCCCC(=O)O[C@H](COC(=O)CCCCCCCCCCCCCCC)COP(=O)([O-])OCC[N+](C)(C)C [POPC, 1-palmitoyl-2-oleoyl-sn-glycero-3-phosphocholine] | did not show a remarkable effect | did not show a remarkable effect |
